Here are results for 29 compounds from patent publication US20070043104A1, “UII-modulating compounds and their use” (priority 2005, published 2007).

Where a name gives a salt, the structure may show the parent alone. Read-outs that look alike come from different tables or passages of the source.

The experiment addresses T1, human urotensin II receptor (Homo sapiens, UniProt Q9UKP6).
T1 construct: expressed in transfected cells; host or cells: NIH3T3 cells
T1 sequence (Q9UKP6 1-389): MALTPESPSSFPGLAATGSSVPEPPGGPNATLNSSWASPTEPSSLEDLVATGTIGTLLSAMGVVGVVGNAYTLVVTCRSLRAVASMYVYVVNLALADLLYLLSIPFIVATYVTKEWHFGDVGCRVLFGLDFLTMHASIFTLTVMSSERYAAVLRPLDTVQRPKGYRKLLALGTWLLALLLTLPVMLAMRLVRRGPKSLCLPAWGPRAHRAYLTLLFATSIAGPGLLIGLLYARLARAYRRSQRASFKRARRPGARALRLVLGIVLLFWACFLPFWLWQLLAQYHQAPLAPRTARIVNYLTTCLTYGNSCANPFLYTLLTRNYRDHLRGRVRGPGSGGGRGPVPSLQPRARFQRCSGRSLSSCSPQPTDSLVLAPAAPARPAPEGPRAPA
Put plainly: Receptor Selection and Amplification (R-SAT) functional assay, NIH3T3 cells transfected with human urotensin II receptor and β-galactosidase marker. The format is cell-based. Particulars: for EC50 / pEC50: eight doses in triplicate. The procedure: The functional receptor assay, Receptor Selection and Amplification Technology (R-SAT™), was used (with minor modifications from the procedure described previously (Brann, M. R. U.S. Pat. No. 5,707,798, 1998; Chem. Abstr. 1998, 128, 111548) to screen compounds for efficacy at the UII receptor. The RSAT assay was conducted as described herein.
Briefly, NIH3T3 cells were grown in tissue culture treated rollerbottles to 40-80% confluence in Dulbecco's modified Eagle's medium (DMEM) supplemented with 10% bovine calf serum (Hyclone) and 1% penicillin/streptomycin/glutamine (Invitrogen). Cells were transfected for 12-18 hours with the human urotensin II receptor and the β-galactosidase marker. After transfection, the cells were trypsinized, harvested and frozen in DMEM containing 10% DMSO. Frozen cells were later thawed and tested for a response to a control compound to perform quality control before initiation of pharmacological testing, ensuring the correct pharmacological response and sufficient sensitivity. To initiate the pharmacological assay, cells were thawed rapidly and prepared in DMEM media containing 0.4% calf serum (Hyclone), 30% UltraCulture (Biowhittaker), and 1% penicillin/streptomycin/glutamine (Invitrogen), and then plated at 10,000-40,000 cells per well of a 96½ area plate that contained either the test compounds or reference ligands. Cells were then grown in a humidified atmosphere with 5% ambient CO2 for five days. Media was then removed from the plates and marker gene activity was measured by the addition of the beta-galactosidase substrate ONPG (in PBS with 5% NP-40). The resulting colorimetric reaction was measured in a spectrophotometric plate reader (Titertek Inc.) at […].
pEC50 represents the negative logarithm of the concentration of ligand that caused 50% activation of the basal receptor response. Percent activation was calculated as the difference between the absorbance measurements in the absence of added ligand compared with that in the presence of saturating concentrations of ligand normalized to the absorbance difference for the reference ligand, which was assigned a value of 100%.
Results were determined in R-SAT assays and are expressed as pEC50, the negative of the log EC50 in molarity. Results are the average±standard deviation of 2-X determinations of the EC50 where each compound was tested in eight doses in triplicate.

The mark [1] stands for this setting: NIH3T3, Table 3, percent activation normalized to the reference ligand assigned 100%, read-out: Efficacy.
Where [2] appears, read: Table 3, negative of the log EC50 in molarity, average ± standard deviation (or range) of determinations.
Where [3] appears, read: NIH3T3, Table 4, % efficacy normalized to UII at 100%.
Setting [4] is: Table 4, negative of the log EC50 in molarity, average ± standard deviation of 2-5 determinations.

`CN(C)CCC(OC(=O)Nc1ccc(C(C)(C)C)cc1)c1ccc(Cl)cc1` (stereo not shown) [7c, N-[1-(4-Chlorophenyl)-3-dimethylaminopropyloxycarbonyl]-4-tert-butylphenyl-amine]: under setting [1], the Emax is 105 ± 8%. In addition, the response under setting [2] was half-maximal at 1780 nM (EC50).
For `CN(C)CCC(OC(=O)Nc1ccc(Oc2ccccc2)cc1)c1ccc(Cl)cc1` (stereo not shown) [7d, N-[1-(4-Chlorophenyl)-3-dimethylaminopropyloxycarbonyl]-4-phenoxyphenyl-amine], in that order: 96% and 126 nM.
As to `CN(C)CCC(OC(=O)NCc1ccccc1)c1ccc(Cl)cc1` (stereo not shown) [7e, N-[1-(4-Chlorophenyl)-3-dimethylaminopropyloxycarbonyl]-benzyl-amine], under setting [1], the Emax came to 180 ± 8%. Besides, the pEC50 under setting [2] turned out to be 5.67 ± 0.11.
With `CN(C)CCC(OC(=O)Nc1ccc2ccccc2c1)c1ccc(Cl)cc1` (stereo not shown) [7g, N-[1-(4-Chlorophenyl)-3-dimethylaminopropyloxycarbonyl]-2-naphthyl-amine], under setting [1], the Emax lay within 74 to 107%. Besides, the EC50 under setting [2] is 263 to 759 nM.
As for `COc1ccc(NC(=O)OC(CCN(C)C)c2ccc(Cl)cc2)cc1` (stereo not shown) [7h, N-[1-(4-Chlorophenyl)-3-dimethylaminopropyloxycarbonyl]-4-methoxyphenyl-amine], the Emax under setting [1] lay in the range of 130 to 223%. Under setting [2], this compound had an EC50 of 955 to 2450 nM.
For `CN(C)CCC(OC(=O)Nc1ccc(C(F)(F)F)cc1)c1ccc(Cl)cc1` (stereo not shown) [7i, N-[1-(4-Chlorophenyl)-3-dimethylaminopropyloxycarbonyl]-4-trifluoromethylphenyl-amine], in that order: 70 to 114% and 178 to 309 nM.
As to `Cc1ccccc1NC(=O)NC(CCN(C)C)c1ccc(Cl)cc1` (stereo not shown) [8a, 1-[1-(4-Chlorophenyl)-3-dimethylaminopropyl]-3-(2-methylphenyl)-carbamide oxalate], under setting [1], the Emax came to 166 ± 24%. Under setting [2], this compound returned a pEC50 of 5.64 ± 0.15.
For `COc1cccc(NC(=O)NC(CCN(C)C)c2ccc(Cl)cc2)c1` (stereo not shown) [8b, 1-[1-(4-Chlorophenyl)-3-dimethylaminopropyl]-3-(3-methoxyphenyl)-carbamide oxalate], in that order: 147 ± 26% and 5.87 ± 0.17.
As to `CN(C)CCC(NC(=O)Nc1ccc(C(C)(C)C)cc1)c1ccc(Cl)cc1` (stereo not shown) [8c, 1-[1-(4-Chlorophenyl)-3-dimethylaminopropyl]-3-(4-tert-butylphenyl)-carbamide oxalate], under setting [1], the Emax was determined as 101 ± 36%. The compound also gave an EC50 under setting [2] of 186 nM.
As to `CN(C)CCC(NC(=O)Nc1ccc(Oc2ccccc2)cc1)c1ccc(Cl)cc1` (stereo not shown) [8d, 1-[1-(4-Chlorophenyl)-3-dimethylaminopropyl]-3-(4-phenoxyphenyl)-carbamide oxalate oxalate], the Emax under setting [1] was in the range of 102 to 119%. The same compound showed a half-maximal effective concentration (EC50) under setting [2] of 63.1 to 145 nM.
For `CN(C)CCC(NC(=O)NCc1ccccc1)c1ccc(Cl)cc1` (stereo not shown) [8e, 1-[1-(4-Chlorophenyl)-3-dimethylaminopropyl]-3-benzyl-carbamide oxalate], in that order: 166 to 193% and 1780 to 2290 nM.
For `CN(C)CCC(NC(=O)Nc1ccc(-c2ccccc2)cc1)c1ccc(Cl)cc1` (stereo not shown) [8f, 1-[1-(4-Chlorophenyl)-3-dimethylaminopropyl]-3-(4-phenylphenyl)-carbamide oxalate], in that order: 75 to 111% and 110 to 178 nM.
On the same counts, the results for `CN(C)CCC(NC(=O)Nc1ccc2ccccc2c1)c1ccc(Cl)cc1` (stereo not shown) [8g, 1-[1-(4-Chlorophenyl)-3-dimethylaminopropyl]-3-(2-naphthyl)-carbamide oxalate] are 89 to 129% and 229 to 380 nM.
Take `COc1ccc(NC(=O)NC(CCN(C)C)c2ccc(Cl)cc2)cc1` (stereo not shown) [8h, 1-[1-(4-Chlorophenyl)-3-dimethylaminopropyl]-3-(4-methoxyphenyl)-carbamide oxalate]: the Emax under setting [1] was 176 to 231%. Further, the EC50 under setting [2] was 1820 to 2340 nM.
On the same counts, the results for `CN(C)CCC(NC(=O)Nc1ccc(C(F)(F)F)cc1)c1ccc(Cl)cc1` (stereo not shown) [8i, 1-[1-(4-Chlorophenyl)-3-dimethylaminopropyl]-3-(4-trifluoromethylphenyl)-carbamide oxalate] are 93 to 120% and 97.7 to 155 nM.
Regarding `CN(C)CCC(NC(=O)Cc1ccccc1)c1ccc(Cl)cc1` (stereo not shown) [A1, N-[1-(4-Chlorophenyl)-3-dimethylamino-propyl]-2-phenylacetamide HCl], the Emax under setting [3] amounted to 76 ± 5%. In addition, under setting [4], the EC50 is 1860 nM.
For `CN(C)CCC(NC(=O)Cc1ccc(C(F)(F)F)cc1)c1ccc(Cl)cc1` (stereo not shown) [A2, N-[1-(4-Chlorophenyl)-3-dimethylamino-propyl]-2-(4-trifluoromethylphenyl)acetamide HCl], in that order: 53 ± 7% and 871 nM.
For `COc1ccc(CC(=O)NC(CCN(C)C)c2ccc(Cl)cc2)cc1` (stereo not shown) [A3, N-[1-(4-Chlorophenyl)-3-dimethylamino-propyl]-2-(4-methoxyphenyl)acetamide HCl], in that order: 65 ± 18% and 1510 nM.
For `CN(C)CCC(NC(=O)CCc1ccccc1)c1ccc(Cl)cc1` (stereo not shown) [A4, N-[1-(4-Chlorophenyl)-3-dimethylamino-propyl]-3-phenyl-propionamide HCl], in that order: 139 ± 5% and 1660 nM.
The compound `CN(C)CCC(NC(=O)CCc1ccc(C(F)(F)F)cc1)c1ccc(Cl)cc1` (stereo not shown) [A5, N-[1-(4-Chlorophenyl)-3-dimethylamino-propyl]-3-(4-trifluoromethylphenyl) propionamide HCl] gave an Emax under setting [3] of 73 ± 10%. Under setting [4], this compound showed a half-maximal effective concentration (EC50) of 1120 nM.
On the same counts, the results for `COc1ccc(CCC(=O)NC(CCN(C)C)c2ccc(Cl)cc2)cc1` (stereo not shown) [A6, N-[1-(4-Chlorophenyl)-3-dimethylamino-propyl]-3-(4-methoxyphenyl)propanamide HCl] are 101 ± 12% and 2950 nM.
For the compound `CN(C)CCC(NC(=O)/C=C/c1ccccc1)c1ccc(Cl)cc1` (stereo not shown) [A7, N-[1-(4-Chlorophenyl)-3-dimethylamino-propyl]-3-cinnamic amide HCl], under setting [3], the Emax was determined as 128 ± 10%. Under setting [4], this compound had an EC50 of 427 nM.
On the same counts, the results for `CN(C)CCC(NC(=O)C=Cc1ccc(C(F)(F)F)cc1)c1ccc(Cl)cc1` (stereo not shown) [A8, N-[1-(4-Chlorophenyl)-3-dimethylamino-propyl]-4-trifluoromethyl-cinnamic amide HCl] are 133 ± 3% and 129 nM.
As for `COc1ccc(C=CC(=O)NC(CCN(C)C)c2ccc(Cl)cc2)cc1` (stereo not shown) [A9, N-[1-(4-Chlorophenyl)-3-dimethylamino-propyl]-4-methoxy-cinnamic amide HCl], the Emax under setting [3] was found to be 99 ± 4%. Moreover, a half-maximal effect under setting [4] (EC50) was put at 513 nM.
On the same counts, the results for `CN(C)CCC(NC(=O)C#Cc1ccccc1)c1ccc(Cl)cc1` (stereo not shown) [A10, N-[1-(4-Chlorophenyl)-3-dimethylamino-propyl]-3-phenylpropiolic amide HCl] are 124 ± 6% and 398 nM.
In the case of `Cc1ccc(C(CCN(C)C)NC(=O)Cc2ccccc2)cc1` (stereo not shown) [B1, N-[3-Dimethylamino-1-(4-methylphenyl)propyl]-2-phenylacetamide HCl], the Emax under setting [3] worked out at 83 ± 11%. Besides, under setting [4], the half-maximal effective concentration (EC50) was 4170 nM.
Under setting [3], `Cc1ccc(C(CCN(C)C)NC(=O)Cc2ccc(C(F)(F)F)cc2)cc1` (stereo not shown) [B2, N-[3-Dimethylamino-1-(4-methylphenyl)propyl]-2-(4-trifluoromethylphenyl)acetamide HCl] displayed an Emax of 25 ± 4%. Further, the half-maximal effective concentration (EC50) under setting [4] was 1120 nM.
On to `COc1ccc(CC(=O)NC(CCN(C)C)c2ccc(C)cc2)cc1` (stereo not shown) [B3, N-[3-Dimethylamino-1-(4-methylphenyl)propyl]-2-(4-methoxyphenyl)acetamide HCl], for which the Emax under setting [3] is 62 ± 5%. The same compound gave an EC50 under setting [4] of 5890 nM.
On the same counts, the results for `Cc1ccc(C(CCN(C)C)NC(=O)CCc2ccccc2)cc1` (stereo not shown) [B4, N-[3-Dimethylamino-1-(4-methylphenyl)propyl]-3-phenylpropionamide HCl] are 73 ± 9% and 4570 nM.
